Experimental data taken from ChEMBL document CHEMBL4725427, “Synthesis and SAR Studies of 1H-Pyrrolo[2,3-b]pyridine-2-carboxamides as Phosphodiesterase 4B (PDE4B) Inhibitors” (ACS Med Chem Lett, 2020).

Columns and labels:
[1] = target: 3',5'-cyclic-AMP phosphodiesterase 4B (Homo sapiens, UniProt Q07343); assay: Inhibition of recombinant human C-terminal His-tagged N-terminal GST-tagged PDE4B2 expressed in baculovirus infected Sf9 cells by radioligand binding assay; format: cell-based
[2] = target: Sigma intracellular receptor 2 (Homo sapiens, UniProt Q5BJF2); assay: Inhibition of sigma2 receptor (unknown origin)
Sequence of Sigma intracellular receptor 2 (Q5BJF2 whole entry): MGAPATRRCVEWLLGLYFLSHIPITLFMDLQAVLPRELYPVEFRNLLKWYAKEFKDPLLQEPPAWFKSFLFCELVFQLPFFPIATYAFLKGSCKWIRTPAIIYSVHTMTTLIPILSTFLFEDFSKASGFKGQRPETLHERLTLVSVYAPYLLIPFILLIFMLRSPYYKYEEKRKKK

[3] = target: Alpha-2A adrenergic receptor (Homo sapiens) (UniProt P08913); assay: Inhibition of adrenoceptor alpha 2A (unknown origin) relative to control; conditions: concentration not given here
[4] = target: Muscarinic acetylcholine receptor M3 (Homo sapiens) (UniProt P20309); assay: Inhibition of muscarinic M3 receptor (unknown origin) relative to control; conditions: concentration not given here
[5] = target: D(3) dopamine receptor (Homo sapiens) (UniProt P35462); assay: Inhibition of D3 (unknown origin) relative to control; conditions: concentration not given here
Sequence of D(3) dopamine receptor (Homo sapiens) (P35462 whole entry): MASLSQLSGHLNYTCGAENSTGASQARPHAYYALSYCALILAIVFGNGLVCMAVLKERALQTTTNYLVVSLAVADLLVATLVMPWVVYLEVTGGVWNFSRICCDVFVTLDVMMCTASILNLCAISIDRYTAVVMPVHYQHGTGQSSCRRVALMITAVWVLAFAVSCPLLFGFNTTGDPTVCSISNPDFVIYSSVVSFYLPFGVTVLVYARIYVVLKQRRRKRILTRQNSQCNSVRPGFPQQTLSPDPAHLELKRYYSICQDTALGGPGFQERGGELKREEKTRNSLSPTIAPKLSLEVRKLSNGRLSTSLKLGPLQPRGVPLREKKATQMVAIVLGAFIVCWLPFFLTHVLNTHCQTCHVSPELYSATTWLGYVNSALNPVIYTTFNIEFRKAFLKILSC

[6] = target: Muscarinic acetylcholine receptor M5 (Homo sapiens) (UniProt P08912); assay: Inhibition of muscarinic M5 receptor (unknown origin) relative to control; conditions: concentration not given here
Sequence of Muscarinic acetylcholine receptor M5 (Homo sapiens) (P08912 whole entry): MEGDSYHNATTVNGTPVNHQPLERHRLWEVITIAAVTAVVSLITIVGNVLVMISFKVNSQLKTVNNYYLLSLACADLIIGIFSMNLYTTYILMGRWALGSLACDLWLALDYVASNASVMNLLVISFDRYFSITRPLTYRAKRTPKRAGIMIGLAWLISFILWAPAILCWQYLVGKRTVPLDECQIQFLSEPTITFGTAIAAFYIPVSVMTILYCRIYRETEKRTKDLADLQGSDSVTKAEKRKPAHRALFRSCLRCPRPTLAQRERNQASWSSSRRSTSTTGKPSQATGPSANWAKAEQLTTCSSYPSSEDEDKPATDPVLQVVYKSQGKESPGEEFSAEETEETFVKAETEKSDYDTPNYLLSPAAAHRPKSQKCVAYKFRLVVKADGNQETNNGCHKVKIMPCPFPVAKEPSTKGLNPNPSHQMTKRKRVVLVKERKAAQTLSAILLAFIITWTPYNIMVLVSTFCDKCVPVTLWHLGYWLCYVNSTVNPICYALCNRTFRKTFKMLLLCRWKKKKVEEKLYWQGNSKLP

[7] = target: Muscarinic acetylcholine receptor M2 (Homo sapiens) (UniProt P08172); assay: Inhibition of muscarinic M2 receptor (unknown origin) relative to control; conditions: concentration not given here
Sequence of Muscarinic acetylcholine receptor M2 (Homo sapiens) (P08172 whole entry): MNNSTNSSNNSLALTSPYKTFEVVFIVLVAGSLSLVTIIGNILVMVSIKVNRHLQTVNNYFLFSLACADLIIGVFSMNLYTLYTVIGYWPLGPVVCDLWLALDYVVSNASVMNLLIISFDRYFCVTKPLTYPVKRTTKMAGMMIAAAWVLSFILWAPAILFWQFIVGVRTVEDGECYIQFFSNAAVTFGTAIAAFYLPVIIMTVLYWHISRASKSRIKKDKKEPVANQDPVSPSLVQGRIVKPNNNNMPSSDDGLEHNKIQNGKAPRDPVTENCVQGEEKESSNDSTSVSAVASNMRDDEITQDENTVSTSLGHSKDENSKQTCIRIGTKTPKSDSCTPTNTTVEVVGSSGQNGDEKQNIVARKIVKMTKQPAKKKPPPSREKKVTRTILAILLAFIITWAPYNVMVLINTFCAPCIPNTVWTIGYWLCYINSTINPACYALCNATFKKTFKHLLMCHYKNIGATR

[8] = target: High affinity cGMP-specific 3',5'-cyclic phosphodiesterase 9A (Homo sapiens) (UniProt O76083); assay: Inhibition of recombinant human N-terminal GST-tagged PDE9A2 expressed in baculovirus infected Sf9 cells at 10 uM by radioligand assay relative to control
Sequence of High affinity cGMP-specific 3',5'-cyclic phosphodiesterase 9A (Homo sapiens) (O76083 whole entry): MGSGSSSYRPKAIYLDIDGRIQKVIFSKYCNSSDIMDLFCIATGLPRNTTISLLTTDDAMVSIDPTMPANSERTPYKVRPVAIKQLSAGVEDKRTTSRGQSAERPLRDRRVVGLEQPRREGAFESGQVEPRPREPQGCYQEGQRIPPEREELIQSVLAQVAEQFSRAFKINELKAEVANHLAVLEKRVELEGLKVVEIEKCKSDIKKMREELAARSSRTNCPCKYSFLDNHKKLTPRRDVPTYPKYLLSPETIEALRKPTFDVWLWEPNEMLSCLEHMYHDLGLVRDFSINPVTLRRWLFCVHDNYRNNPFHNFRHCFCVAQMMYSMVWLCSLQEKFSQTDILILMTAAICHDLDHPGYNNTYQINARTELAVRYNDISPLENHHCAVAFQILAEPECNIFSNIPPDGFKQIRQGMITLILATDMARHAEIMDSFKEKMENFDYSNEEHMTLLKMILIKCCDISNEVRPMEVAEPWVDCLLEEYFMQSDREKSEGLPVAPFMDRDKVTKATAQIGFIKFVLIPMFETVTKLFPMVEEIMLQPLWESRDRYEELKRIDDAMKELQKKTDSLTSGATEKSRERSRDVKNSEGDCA

[9] = target: 5-hydroxytryptamine receptor 7 (Homo sapiens) (UniProt P34969); assay: Inhibition of 5HT7A (unknown origin) relative to control; conditions: concentration not given here
Sequence of 5-hydroxytryptamine receptor 7 (Homo sapiens) (P34969 whole entry): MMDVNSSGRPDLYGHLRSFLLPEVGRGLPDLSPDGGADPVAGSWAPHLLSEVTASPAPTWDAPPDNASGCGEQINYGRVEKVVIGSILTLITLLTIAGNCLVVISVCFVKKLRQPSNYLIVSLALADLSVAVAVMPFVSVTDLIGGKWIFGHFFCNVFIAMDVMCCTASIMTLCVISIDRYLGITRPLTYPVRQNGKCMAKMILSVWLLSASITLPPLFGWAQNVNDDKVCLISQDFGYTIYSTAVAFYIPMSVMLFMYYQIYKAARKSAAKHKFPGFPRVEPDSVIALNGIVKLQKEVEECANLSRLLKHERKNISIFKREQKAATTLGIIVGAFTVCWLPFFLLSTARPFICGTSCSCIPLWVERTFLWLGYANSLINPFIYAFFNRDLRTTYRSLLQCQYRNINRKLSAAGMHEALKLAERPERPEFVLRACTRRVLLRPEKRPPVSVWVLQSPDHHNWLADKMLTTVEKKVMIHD

[10] = target: Histamine H2 receptor (Homo sapiens) (UniProt P25021); assay: Inhibition of histamine H2 receptor (unknown origin) relative to control; conditions: concentration not given here
[11] = target: Sodium-dependent dopamine transporter (Homo sapiens) (UniProt Q01959); assay: Inhibition of DAT receptor (unknown origin) relative to control; conditions: concentration not given here
Rattus norvegicus = species: Rattus norvegicus; assay: Inhibition of rat brain BZP relative to control; format: tissue-based; conditions: dose or concentration not given here
[12] = Effect on TNFalpha production in C57BL/6 mouse bone marrow derived Macrophage at 1 to 10 uM incubated for 30 mins by ELISA; conditions: 0.5 h
[13] = Metabolic stability in human liver microsomes assessed as intrinsic clearance; format: ADME, Microsome; conditions: read-out: CLH
[14] = Metabolic stability in human Hepatocyte assessed as half life; format: ADME, tissue-based; conditions: hepatocytes
[15] = target: 5-hydroxytryptamine receptor 2C (Homo sapiens, UniProt P28335); assay: Inhibition of 5HT2C (unknown origin)
Sequence of 5-hydroxytryptamine receptor 2C (P28335 whole entry): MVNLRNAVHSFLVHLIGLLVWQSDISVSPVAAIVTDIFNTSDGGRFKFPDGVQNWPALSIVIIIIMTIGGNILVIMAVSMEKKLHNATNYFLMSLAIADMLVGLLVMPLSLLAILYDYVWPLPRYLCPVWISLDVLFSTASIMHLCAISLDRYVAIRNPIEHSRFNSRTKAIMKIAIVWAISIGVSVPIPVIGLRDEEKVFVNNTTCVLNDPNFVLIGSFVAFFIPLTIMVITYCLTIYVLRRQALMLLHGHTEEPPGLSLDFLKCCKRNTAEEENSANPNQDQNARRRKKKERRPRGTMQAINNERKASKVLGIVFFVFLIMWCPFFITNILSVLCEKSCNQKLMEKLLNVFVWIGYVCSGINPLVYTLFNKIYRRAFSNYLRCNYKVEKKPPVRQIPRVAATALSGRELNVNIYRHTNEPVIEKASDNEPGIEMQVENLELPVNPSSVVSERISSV

[16] = target: 3',5'-cyclic-AMP phosphodiesterase 4D (Homo sapiens) (UniProt Q08499); assay: Inhibition of recombinant human N-terminal GST-tagged PDE4D3 expressed in baculovirus infected Sf9 cells at 10 uM by radioligand assay relative to control
[17] = target: Dual specificity calcium/calmodulin-dependent 3',5'-cyclic nucleotide phosphodiesterase 1A (Homo sapiens) (UniProt P54750); assay: Inhibition of recombinant human N-terminal GST-tagged PDE1A1 expressed in baculovirus infected Sf9 cells at 10 uM by radioligand assay relative to control
[18] = target: High affinity 3',5'-cyclic-AMP phosphodiesterase 7A (Homo sapiens) (UniProt Q13946); assay: Inhibition of recombinant human N-terminal GST-tagged PDE7A1 (122 to end residues) expressed in baculovirus infected Sf9 cells at 10 uM by radioligand assay relative to control
[19] = target: cGMP-dependent 3',5'-cyclic phosphodiesterase (Homo sapiens) (UniProt O00408); assay: Inhibition of recombinant human N-terminal FLAG-tagged PDE2A1 (2 to 941 residues) expressed in baculovirus infected Sf9 cells at 10 uM by radioligand assay relative to control
[20] = target: cGMP-inhibited 3',5'-cyclic phosphodiesterase 3B (Homo sapiens) (UniProt Q13370); assay: Inhibition of recombinant human N-terminal His-tagged PDE3B (592 to end residues) expressed in baculovirus infected Sf9 cells at 10 uM by radioligand assay relative to control
[21] = target: Histamine H3 receptor (Homo sapiens) (UniProt Q9Y5N1); assay: Inhibition of histamine H3 receptor (unknown origin) relative to control; conditions: concentration not given here
[22] = target: cGMP-specific 3',5'-cyclic phosphodiesterase (Homo sapiens) (UniProt O76074); assay: Inhibition of recombinant human N-terminal GST-tagged PDE5A1 expressed in baculovirus infected Sf9 cells at 10 uM by radioligand assay relative to control
[23] = target: cAMP and cAMP-inhibited cGMP 3',5'-cyclic phosphodiesterase 10A (Homo sapiens) (UniProt Q9Y233); assay: Inhibition of recombinant human N-terminal GST-tagged PDE10A2 expressed in baculovirus infected Sf9 cells at 10 uM by radioligand assay relative to control
Sequence of cAMP and cAMP-inhibited cGMP 3',5'-cyclic phosphodiesterase 10A (Homo sapiens) (Q9Y233 whole entry): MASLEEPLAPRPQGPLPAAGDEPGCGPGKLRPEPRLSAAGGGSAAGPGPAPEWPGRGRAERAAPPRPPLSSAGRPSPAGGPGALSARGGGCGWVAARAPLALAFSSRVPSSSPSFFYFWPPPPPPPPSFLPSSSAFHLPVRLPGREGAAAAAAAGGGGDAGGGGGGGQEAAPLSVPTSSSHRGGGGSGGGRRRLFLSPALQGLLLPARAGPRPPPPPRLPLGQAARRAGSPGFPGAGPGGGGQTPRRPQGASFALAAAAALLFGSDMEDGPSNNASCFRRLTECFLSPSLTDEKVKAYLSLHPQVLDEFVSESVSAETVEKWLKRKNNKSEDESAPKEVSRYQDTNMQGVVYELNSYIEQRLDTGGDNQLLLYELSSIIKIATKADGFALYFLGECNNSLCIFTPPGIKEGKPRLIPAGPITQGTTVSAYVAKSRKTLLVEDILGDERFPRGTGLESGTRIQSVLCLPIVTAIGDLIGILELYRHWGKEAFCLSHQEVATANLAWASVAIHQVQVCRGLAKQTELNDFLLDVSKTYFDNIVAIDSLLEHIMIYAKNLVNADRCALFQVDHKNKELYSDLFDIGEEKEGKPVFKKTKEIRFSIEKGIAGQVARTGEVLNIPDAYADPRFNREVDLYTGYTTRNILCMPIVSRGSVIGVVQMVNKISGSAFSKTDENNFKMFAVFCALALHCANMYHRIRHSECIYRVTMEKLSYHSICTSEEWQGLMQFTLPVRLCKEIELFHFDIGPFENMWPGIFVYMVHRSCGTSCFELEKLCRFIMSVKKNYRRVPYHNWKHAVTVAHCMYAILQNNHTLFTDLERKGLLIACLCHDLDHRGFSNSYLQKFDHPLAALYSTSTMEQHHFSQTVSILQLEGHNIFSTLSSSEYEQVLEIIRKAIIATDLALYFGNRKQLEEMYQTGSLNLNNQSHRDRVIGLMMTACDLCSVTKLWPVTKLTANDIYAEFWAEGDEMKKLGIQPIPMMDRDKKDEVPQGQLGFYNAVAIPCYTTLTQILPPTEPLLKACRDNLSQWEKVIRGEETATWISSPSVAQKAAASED

[24] = target: 5-hydroxytryptamine receptor 2B (Homo sapiens) (UniProt P41595); assay: Inhibition of 5HT2B (unknown origin) relative to control; conditions: concentration not given here
[25] = target: 5-hydroxytryptamine receptor 1E (Homo sapiens) (UniProt P28566); assay: Inhibition of 5HT1E (unknown origin) relative to control; conditions: concentration not given here

Sequence of 3',5'-cyclic-AMP phosphodiesterase 4B (Q07343 whole entry): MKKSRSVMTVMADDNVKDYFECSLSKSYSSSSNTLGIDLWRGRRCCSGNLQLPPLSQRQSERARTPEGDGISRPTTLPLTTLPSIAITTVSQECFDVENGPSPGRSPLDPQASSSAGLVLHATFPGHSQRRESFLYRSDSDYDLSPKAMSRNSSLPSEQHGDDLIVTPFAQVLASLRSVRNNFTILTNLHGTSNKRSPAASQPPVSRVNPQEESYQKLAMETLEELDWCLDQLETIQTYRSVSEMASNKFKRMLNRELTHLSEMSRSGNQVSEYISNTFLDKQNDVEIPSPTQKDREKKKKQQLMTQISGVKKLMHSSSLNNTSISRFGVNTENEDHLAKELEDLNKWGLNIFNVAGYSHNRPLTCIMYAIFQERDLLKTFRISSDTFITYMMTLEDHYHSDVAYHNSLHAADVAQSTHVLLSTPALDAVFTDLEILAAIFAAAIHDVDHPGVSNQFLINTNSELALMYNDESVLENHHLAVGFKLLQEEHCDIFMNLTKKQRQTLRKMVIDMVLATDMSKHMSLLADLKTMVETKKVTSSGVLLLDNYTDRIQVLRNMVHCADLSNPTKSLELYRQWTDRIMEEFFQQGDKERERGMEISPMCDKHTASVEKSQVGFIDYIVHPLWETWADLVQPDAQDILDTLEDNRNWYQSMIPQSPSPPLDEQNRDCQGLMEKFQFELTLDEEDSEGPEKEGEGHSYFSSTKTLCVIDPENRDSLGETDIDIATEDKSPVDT

IC50 [1]: 0.14 µM
IC50 [2]: 7.8 µM
inhibition [3]: < 50%
inhibition [4]: < 50%
inhibition [5]: < 50%
inhibition [6]: < 50%
inhibition [7]: < 50%
inhibition [8]: < 50%
inhibition [9]: < 50%
inhibition [10]: < 50%
inhibition [11]: < 50%
CLint scaled [13]: 97.1 mL/min/kg
half-life [14]: 49.4 min
IC50 [15]: > 10 µM
inhibition [16]: < 50%
inhibition [17]: < 50%
inhibition [18]: < 50%
inhibition [19]: < 50%
inhibition [20]: 87%
inhibition [21]: < 50%
inhibition [22]: < 50%
inhibition [23]: < 50%
inhibition [24]: < 50%
inhibition [25]: < 50%
Compound: O=C(c1nc2cccnc2n1-c1ccc(Cl)c(Cl)c1)N1CC(F)(F)C1
inhibition (Rattus norvegicus): < 50%
Activity [12]: Non-Toxic
